Literature values as cited in patent US20040254092A1 (priority 2003, published 2004).

Experiments:
[1] = system: Mycoplasma, Chlamydia, and other pathogens
[2] = system: Poliomyelitis virus type I (PVI); conditions: ozone density 0.13 mg/L, time 30 seconds
[3] = system: SA-H and human-wheel virus type 2
[4] = system: Type-B hepatitis surface antigen (HbsAg)

In the case of `O=[O+][O-]` [Ozone, ozone], the Sterilizing efficiency (HIV) is listed as 100%, the Sterilizing efficiency [1] is listed as 99.85% and the Sterilizing efficiency (Type-A flu virus) is listed as 99%. The Sterilizing efficiency [2] was 100%, the Sterilizing efficiency (Coliphage ms2) was 98% and the Sterilizing efficiency [3] was 99.60%. For the same molecule, the Sterilizing efficiency [4] was 99.99% and the Sterilizing efficiency (Coronaviridae) was 100%.
